According to PubChem BioAssay AID977605 (Broad Institute, 2014):
Activity calls are given as the source filed them.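 How the source made its calls: active means fitted curve reaches 40% activation below the top valid tested dose, in every test run; inconclusive means test runs disagree on the call; inactive means the rest, including effects opposite to the expected direction.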

Assay: E-selectin inducers in HUVECs, dose response, imaging, HUVEC, cherry-picked samples (AID 977605);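 further: signal is the share of imaged cells scored positive for E-selectin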
Settings: HUVEC E-selectin immunostaining, at 18 µM (top of the series), percent of TNF-alpha response over vehicle

SMILES | activation
CN1c2ccc(C#Cc3cccnc3)cc2[C@@H]2[C@@H](CCN2C(=O)C2CCC2)[C@H]1CO | -0.065% (inactive)

Same assay, conditions: HUVEC E-selectin immunostaining, at 19.5 µM (top of the series)

SMILES | activation
NC(C(=O)O)c1cc(=O)[nH]o1 (stereo not drawn) | 0.044% (inactive)

Same assay, conditions: HUVEC E-selectin immunostaining, at 19.5 µM (top of the series), percent of TNF-alpha response over vehicle

SMILES | activation
C[C@@H]1CN([C@H](C)CO)C(=O)c2cccc(NC(=O)c3ccc(-c4nccs4)cc3)c2O[C@H]1CN(C)Cc1ccc(Oc2ccccc2)cc1 | 9.5% (inactive)
C[C@H](CO)N1C[C@H](C)[C@H](CN(C)Cc2ccc3c(c2)OCO3)Oc2ccc(NC(=O)Cn3cnnn3)cc2C1=O | 2.56% (inactive)
CCOc1cnc(C(=O)NNC(=O)c2ccccc2Br)o1 | 0.602% (inactive)
Cc1cc(NC(=O)CCC(=O)N(c2ccccc2)C(C(=O)NC2CCCC2)c2ccc(F)cc2)no1 (stereo not drawn) | 0.168% (inactive)
C[C@@H]1CN([C@H](C)CO)C(=O)Cc2cc(NS(=O)(=O)c3cccs3)ccc2O[C@@H]1CN(C)Cc1ccc(C(=O)Nc2ccccc2N)cc1 | 1.45% (inactive)
C[C@@H]1CN([C@@H](C)CO)C(=O)Cc2cc(NC(=O)Nc3ccc(F)cc3)ccc2O[C@@H]1CN(C)Cc1ccncc1 | 10.4% (inactive)
COc1ccc(S(=O)(=O)Nc2cccc3c2O[C@H](CN(C)C(=O)Nc2c(C)noc2C)[C@H](C)CN([C@H](C)CO)C3=O)cc1 | -0.109% (inactive)
O=C(c1cc(COc2ccc(F)cc2Cl)on1)N(Cc1ccncc1)CC1CCCO1 (stereo not drawn) | -0.279% (inactive)
C[C@@H]1CN([C@@H](C)CO)C(=O)c2cccc(NC(=O)C3CC3)c2O[C@H]1CN(C)Cc1ccccc1 | 0.172% (inactive)
C[C@H]1CN([C@@H](C)CO)C(=O)c2cc(NC(=O)CCN3CCOCC3)ccc2O[C@H]1CN(C)S(=O)(=O)c1ccc(Cl)cc1 | -0.234% (inactive)
C[C@@H]1CN([C@H](C)CO)C(=O)Cc2cc(NC(=O)Nc3ccc(F)cc3)ccc2O[C@H]1CN(C)S(=O)(=O)c1ccc(Cl)cc1 | 0.054% (inactive)
C[C@@H]1CN([C@@H](C)CO)C(=O)c2cc(NS(=O)(=O)c3cccs3)ccc2O[C@@H]1CN(C)C(=O)Nc1ccc2c(c1)OCO2 | -0.086% (inactive)
C[C@H](CO)N1C[C@H](C)[C@@H](CN(C)S(=O)(=O)c2cccs2)Oc2ccc(NS(=O)(=O)c3ccc(Cl)cc3)cc2CC1=O | 0.125% (inactive)
COc1ccc(S(=O)(=O)Nc2ccc3c(c2)CC(=O)N([C@H](C)CO)C[C@@H](C)[C@H](CN(C)C(=O)NC2CCCCC2)O3)cc1 | -0.114% (inactive)
C[C@@H]1CN([C@H](C)CO)C(=O)c2cc(NC(=O)CCN3CCOCC3)ccc2O[C@@H]1CN(C)Cc1ccc(C(F)(F)F)cc1 | -0.028% (inactive)
C[C@@H]1CN([C@@H](C)CO)C(=O)Cc2cc(NC(=O)CCCCCC(=O)Nc3ccccc3N)ccc2O[C@@H]1CN(C)C(=O)Nc1ccc2c(c1)OCO2 | 0.042% (inactive)
COc1ccccc1-c1c(C)nn2c(NCCN3CCCC3)cc(C)nc12 | 0.061% (inactive)
CCOC(=O)c1cccc(NC(=O)Nc2ccc3c(c2)C(=O)OC3)c1 | 0.013% (inactive)
CO[C@H]1CN(C)C(=O)c2cc(NC(=O)Nc3ccc(Cl)cc3)ccc2OC[C@H](C)NC[C@H]1C | 0.158% (inactive)

SMILES | activation
COc1ccc(CN(C)C[C@@H]2Oc3ccc(NC(=O)Nc4ccc(F)cc4)cc3CC(=O)N([C@@H](C)CO)C[C@@H]2C)cc1 | 0.025% (inactive)
NC(=O)C1CCN(c2nc(-c3ccccc3-c3ccccc3)cs2)CC1 | 0.136% (inactive)
c1ccc(-c2ccccc2OCCOCCN2CCNCC2)cc1 | 0.084% (inactive)
CCc1cc(C(=O)Nc2nc(-c3ccccn3)cs2)sc1C | 0.665% (inactive)
O=C(Nc1cccc(C(F)(F)F)c1)c1cc[n+]([O-])cc1 | 0.066% (inactive)
CCOc1ccc(C(=O)N2CCN(S(=O)(=O)c3cccs3)CC2)c(OCC)c1 | -0.235% (inactive)
C[C@@H]1CN([C@@H](C)CO)C(=O)c2cccc(NC(=O)C3CCOCC3)c2O[C@@H]1CN(C)Cc1ccncc1 | 0.913% (inactive)
C[C@@H]1CN([C@@H](C)CO)C(=O)Cc2cc(NC(=O)c3ccncc3)ccc2O[C@@H]1CN(C)S(=O)(=O)c1cn(C)cn1 | -0.153% (inactive)
COc1ccc2[nH]c(=O)c(CN(c3ccccc3)S(=O)(=O)c3ccccc3)cc2c1 | 3% (inactive)
C[C@@H]1CN([C@H](C)CO)C(=O)c2cc(C3=CCCC3)cnc2O[C@H]1CN(C)C(=O)Nc1ccccc1 | -0.157% (inactive)
C[C@H]1CN([C@@H](C)CO)C(=O)c2cccc(NC(=O)c3cnccn3)c2O[C@H]1CN(C)Cc1ccc2c(c1)OCO2 | -0.117% (inactive)
CC(C)NC(=O)N(C)C[C@H]1Oc2ccc(NC(=O)CCN3CCOCC3)cc2C(=O)N([C@@H](C)CO)C[C@H]1C | -0.017% (inactive)
C[C@@H]1CN([C@H](C)CO)C(=O)c2cc(NS(=O)(=O)c3ccccc3)ccc2O[C@@H]1CN(C)C(=O)NC1CCCCC1 | -0.139% (inactive)
CN1C(=O)c2cc(NS(C)(=O)=O)ccc2OC[C@@H]2O[C@H](CC(=O)NCc3ccc(-c4ccccc4)cc3)CC[C@@H]21 | -0.043% (inactive)
O=C(COc1ccc(Cl)cc1)Nc1nnc(S(=O)(=O)N2CCCCCC2)s1 | 1.11% (inactive)
COc1ccc(CN(C)C[C@H]2Oc3ccc(NC(=O)c4ccncc4)cc3C(=O)N([C@H](C)CO)C[C@@H]2C)cc1 | 0.118% (inactive)
COc1ccc(S(=O)(=O)N(C)C[C@H]2Oc3ccc(NC(=O)c4ccncc4)cc3C(=O)N([C@H](C)CO)C[C@@H]2C)cc1 | -0.104% (inactive)
C[C@@H]1CN([C@H](C)CO)C(=O)c2cc(NS(=O)(=O)c3ccccc3)ccc2O[C@H]1CN(C)C(=O)NC1CCCCC1 | 0.289% (inactive)
CCNC(=O)C[C@@H]1CC[C@H]2[C@@H](COc3ccc(NC(=O)Nc4ccc(F)cc4)cc3C(=O)N2C)O1 | -0.137% (inactive)

SMILES | activation
N#Cc1ccc(-c2csc(NC3=NCCCCC3)n2)cc1 | -0.002% (inactive)
COc1ccc(S(=O)(=O)N(C)C[C@H]2Oc3ccc(NC(=O)CCCN(C)C)cc3C(=O)N([C@@H](C)CO)C[C@@H]2C)cc1 | -0.152% (inactive)
Cc1ccc(S(=O)(=O)N2CCOCC2)cc1C(=O)NC1CCCC1 | -0.154% (inactive)
C[C@H](CO)N1C[C@H](C)[C@@H](CN(C)Cc2ccc(Oc3ccccc3)cc2)Oc2ccc(NC(=O)Nc3ccc(C(F)(F)F)cc3)cc2CC1=O | -0.23% (inactive)
CC(C)NC(=O)N(C)C[C@@H]1Oc2ccc(NC(=O)CCN3CCOCC3)cc2C(=O)N([C@@H](C)CO)C[C@H]1C | 0.429% (inactive)
C[C@@H]1CN([C@@H](C)CO)C(=O)c2cc(NC(=O)Cn3cnnn3)ccc2O[C@H]1CN(C)Cc1ccc(Oc2ccccc2)cc1 | 6.68% (inactive)
C[C@@H]1CN([C@@H](C)CO)C(=O)c2cccc(NC(=O)Nc3ccccc3)c2O[C@H]1CN(C)S(=O)(=O)c1ccccc1 | 0.91% (inactive)
C[C@H](CO)N1C[C@H](C)[C@H](CN(C)S(=O)(=O)c2ccc(Cl)cc2)Oc2c(NC(=O)C3CCCCC3)cccc2C1=O | 0.576% (inactive)
C[C@@H]1CN([C@@H](C)CO)C(=O)Cc2cc(NC(=O)NC3CCCCC3)ccc2O[C@H]1CN(C)C(=O)Nc1ccc2c(c1)OCO2 | 16.7% (inactive)
CCN(Cc1ccccc1)S(=O)(=O)c1ccc(OC)c2ncccc12 | -0.178% (inactive)
CC(C)NC(=O)Nc1ccc2c(c1)C(=O)N(C)[C@@H]1CC[C@@H](CC(=O)NCC(F)(F)F)O[C@@H]1CO2 | 0.147% (inactive)
CN(CC(=O)Nc1ccccc1Br)C(=O)CNC(=O)C1CCCCC1 | 0.383% (inactive)
Cc1noc(C)c1S(=O)(=O)Nc1ccc2c(c1)C(=O)N([C@@H](C)CO)C[C@@H](C)[C@@H](CN(C)Cc1ccc3c(c1)OCO3)O2 | -0.115% (inactive)
Cc1ccc(S(=O)(=O)N(C)C[C@H]2Oc3ccc(N(C)C)cc3C(=O)N([C@@H](C)CO)C[C@@H]2C)cc1 | 9.64% (inactive)
CNC[C@@H]1Oc2ccc(NS(C)(=O)=O)cc2C(=O)N([C@@H](C)CO)C[C@@H]1C | -0.177% (inactive)
CCC(=O)c1ccc(OCC(=O)NNC(=O)c2cc(C)oc2C)cc1 | -0.03% (inactive)
CC1CC(=O)Nc2ccccc2N1S(=O)(=O)c1cccs1 (stereo not drawn) | -0.177% (inactive)
COc1ccc(CNS(=O)(=O)c2ccc3c(c2)C(C)(C)C(=O)N3C)cc1 | 0.021% (inactive)

Same assay, conditions: HUVEC E-selectin immunostaining, at 21 µM (top of the series), percent of TNF-alpha response over vehicle

SMILES | activation
C[C@H]1CN([C@@H](C)CO)C(=O)Cc2cc(NC(=O)Nc3ccc(C(F)(F)F)cc3)ccc2O[C@H]1CN(C)C(=O)Nc1cccc2ccccc12 | 0.822% (inactive)
CC(C)NC(=O)N(C)C[C@@H]1Oc2ccc(NC(=O)Cn3cnnn3)cc2C(=O)N([C@H](C)CO)C[C@H]1C | -0.15% (inactive)
Cc1noc(C)c1NC(=O)N(C)C[C@@H]1Oc2ccc(NS(=O)(=O)c3cccs3)cc2CC(=O)N([C@H](C)CO)C[C@@H]1C | 10.8% (inactive)
C[C@@H]1CN([C@@H](C)CO)C(=O)c2cc(NS(=O)(=O)c3cn(C)cn3)ccc2O[C@H]1CN(C)C(=O)Nc1ccc(F)cc1 | 0.066% (inactive)
C[C@@H]1CN([C@H](C)CO)C(=O)Cc2cc(NC(=O)Cc3cn(C)c4ccccc34)ccc2O[C@@H]1CN(C)Cc1ccc(C(F)(F)F)cc1 | 0.433% (inactive)
C[C@H](CO)N1C[C@H](C)[C@H](CN(C)S(C)(=O)=O)Oc2c(NS(C)(=O)=O)cccc2C1=O | -0.054% (inactive)
C[C@H](NC(=O)C[C@H]1CC[C@H]2[C@H](COc3ccc(NS(=O)(=O)c4ccc(Cl)cc4)cc3C(=O)N2C)O1)c1ccccc1 | 0.192% (inactive)
C[C@@H]1CN([C@H](C)CO)C(=O)c2cc(NC(=O)CCCCCC(=O)Nc3ccccc3N)ccc2O[C@H]1CN(C)C(=O)Nc1ccc2c(c1)OCO2 | -0.113% (inactive)
C[C@H]1CN([C@@H](C)CO)C(=O)Cc2cc(NS(C)(=O)=O)ccc2O[C@@H]1CN(C)Cc1ccncc1 | 0.217% (inactive)
CC(C)NC(=O)Nc1ccc2c(c1)C(=O)N([C@@H](C)CO)C[C@@H](C)[C@H](CN(C)Cc1ccc(C(F)(F)F)cc1)O2 | 0.029% (inactive)
